In the experiment the target is T1, All2699g1g2 (g1g2) (Nostoc sp. PCC 7120 = FACHB-418, UniProt A0ACD6B963).
T1 construct: gene all2699; GAF1-GAF2 (GAF-PHY) photosensory module of All2699; borders, tags and host not in main text
In words: steady-state absorption, CD and femtosecond transient absorption of the chromophore-bound protein. The format is binding. Conditions: covalent (known biology, not given); chromophore embedded in GAF1 domain; Pr and Pfr states.

T1 sequence (A0ACD6B963 1-656 limits assumed): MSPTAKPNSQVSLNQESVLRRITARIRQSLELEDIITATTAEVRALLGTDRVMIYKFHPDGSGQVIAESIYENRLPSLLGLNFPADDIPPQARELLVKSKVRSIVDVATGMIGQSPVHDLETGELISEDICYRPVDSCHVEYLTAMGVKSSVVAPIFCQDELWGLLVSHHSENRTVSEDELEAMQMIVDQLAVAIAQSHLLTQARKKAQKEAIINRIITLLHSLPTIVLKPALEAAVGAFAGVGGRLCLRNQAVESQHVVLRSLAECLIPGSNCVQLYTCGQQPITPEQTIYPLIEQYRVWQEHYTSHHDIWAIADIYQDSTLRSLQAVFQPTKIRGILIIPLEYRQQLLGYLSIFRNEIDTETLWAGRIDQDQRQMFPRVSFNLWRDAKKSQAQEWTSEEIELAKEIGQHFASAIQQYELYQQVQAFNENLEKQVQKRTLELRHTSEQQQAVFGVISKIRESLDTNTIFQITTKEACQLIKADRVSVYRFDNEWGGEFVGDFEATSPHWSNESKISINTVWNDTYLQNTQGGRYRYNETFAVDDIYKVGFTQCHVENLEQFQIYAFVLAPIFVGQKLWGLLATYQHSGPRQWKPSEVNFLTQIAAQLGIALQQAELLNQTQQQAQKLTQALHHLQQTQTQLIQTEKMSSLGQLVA

Turning to `C/C=C1/C(=C/C2=NC(=C\c3[nH]c(/C=C4\NC(=O)C(CC)=C4C)c(C)c3CCC(=O)O)/C(CCC(=O)O)=C2C)NC(=O)[C@@H]1C` [PCB, phycocyanobilin], the “steady-state absorption, CD and femtosecond transient absorption of the chromoph” value was “interactions of the PCB chromophore with the “tongue” region of the g2 domain in g1g2”.

(Values after PMC7839672, “Effect of the PHY Domain on the Photoisomerization Step of the Forward Pr→Pfr Conversion of a Knotless Phytochrome” (Chemistry (Weinheim an Der Bergstrasse, Germany), 2020).)
